System: H. pylori
Experiment: Drug resistance testing of laboratory strains on characteristic culture medium (discoloration after 36 hours)
Format: cell-based, Helicobacter pylori
Experimental: The characteristic culture media (A, B, C, D, E) are cultivated at a constant temperature of 37° C. for 36 hours in a three gas incubator. The characteristic culture media are removed and placed in a natural environment for 30 minutes to observe whether there are discolorations at the point of the culture medium where the specimen is dropped in. […] Another 100 μL of the specimen is taken and coated on Columbia solid culture medium and cultivated in a three gas incubator at a constant temperature of 37° C. for 3 days to 5 days. The number of colonies on the plate is counted to determine the initial inoculation amount. The micro dilution method is adopted to test the MIC of clinical specimen H. pylori, the test is meaningful only when there is no bacterial growth in the negative control well without bacteria and there is bacterial growth in the positive well with bacteria but without antibiotics. […] The results are recorded and whether the micro dilution method and characteristic culture medium are consistent with each other in evaluating the drug resistance of clinical H. pylori strains is compared. […]
(2) Inoculation of bacterial solution: 10 μL bacterial solution is taken and added dropwise onto a characteristic culture medium with 5 pieces (ABCDE) in total.
(3) Culture: all plates are moved to a three gas incubator and cultivated at 37° C. for 36 hours. After being taken out and placed in a natural environment for 30 minutes, whether the bacteria have resistance is determined based on the discoloration of the characteristic culture medium.

Row | SMILES | drug resistance determined by discoloration of characteristic culture medium (strain 159, 1×10^6 CFU/mL) | drug resistance determined by discoloration of characteristic culture medium (strain 286, 1×10^6 CFU/mL) | drug resistance determined by discoloration of characteristic culture medium (strain 287, 1×10^6 CFU/mL) | drug resistance determined by discoloration of characteristic culture medium (strain 289, 1×10^6 CFU/mL) | drug resistance determined by discoloration of characteristic culture medium (strain G27, 1×10^6 CFU/mL)
1 | Cc1ncc([N+](=O)[O-])n1CCO [Metronidazole, metronidazole] | developed resistance | have developed resistance | have developed resistance | have developed resistance | does not develop resistance
2 | CC1(C)S[C@@H]2[C@H](NC(=O)[C@H](N)c3ccc(O)cc3)C(=O)N2[C@H]1C(=O)O [Amoxicillin, amoxicillin] | sensitive | have developed resistance | have developed resistance | have developed resistance | does not develop resistance
3 | CC[C@H]1OC(=O)[C@H](C)[C@@H](O[C@H]2C[C@@](C)(OC)[C@@H](O)[C@H](C)O2)[C@H](C)[C@@H](O[C@@H]2O[C@H](C)C[C@H](N(C)C)[C@H]2O)[C@](C)(OC)C[C@@H](C)C(=O)[C@H](C)[C@@H](O)[C@]1(C)O [Clarithromycin, clarithromycin] | developed resistance | have developed resistance | have developed resistance | have developed resistance | does not develop resistance
